Measured values from publication PMC10673995, “Discovery of a novel cardiac-specific myosin modulator using artificial intelligence-based virtual screening” (Nature Communications, 2023).
“And” between values parts separate entries of the source, which are not always exact repeats. Identical values can stand only once.

Test system: isolated Langendorff-perfused rat hearts
Experiment: Langendorff-perfused rat hearts, haemodynamic parameters
Parameters: key to LVSP, individual hearts / LVEDP, individual hearts: pressure in mmHg; Max (Figure 5c): unit not given here
Details: for Max (Figure 5c): one column per heart; for LVSP representative trace, ON: during perfusion with compound
Procedure: Next, we tested for the functional effects of F10 in isolated Langendorff-perfused rat hearts. Hearts were initially stabilized in modified Krebs-Henseleit (KH) solution for about 25–30 min and subsequently perfused with KH solution containing 20 μmol L^−1 F10 for 5 mins to reach a new steady state.
Rat hearts were Langendorff-perfused as described previously. Briefly, Wistar rats (Rattus norvegicus, male, 200–250 g, 7 weeks old) were anesthetized by injection of 0.9 mL sodium pentobarbitone 20% (w/v). […] The aorta was cannulated and secured with sutures (Mersilk 3‐0; Ethicon, Somerville, NJ, USA). Hearts were perfused at a constant perfusion pressure of 70 ± 2 mmHg using a peristaltic pump (Gilson Minipuls 4, Middleton, WI, USA) and a feedback control system (STH Pump Controller; AD Instruments, Oxford, UK). […] A fluid‐filled balloon, attached to a pressure transducer, was inserted into the left ventricle and inflated to give an end‐diastolic pressure between 3 and 8 mmHg. Left ventricular pressure (LVP), perfusion pressure, coronary flow and arterial and venous oxygen tensions were recorded using a PowerLab recorder and LabChart 8.0 software (ADInstruments). Functional parameters were averaged for ∼80 cardiac cycles at 5 min intervals.

[1] = 20 μmol L^−1 F10 or 1 μmol L^−1 Mavacamten
[2] = Time 11 min, during perfusion with 20 μmol L^−1 F10 or 1 μmol L^-1 Mavacamten
[3] = Time 12 min, during perfusion with 20 μmol L^−1 F10 or 1 μmol L^-1 Mavacamten
[4] = Time 13 min, during perfusion with 20 μmol L^−1 F10 or 1 μmol L^-1 Mavacamten
[5] = Time 14 min, during perfusion with 20 μmol L^−1 F10 or 1 μmol L^-1 Mavacamten
[6] = Time 15 min, during perfusion with 20 μmol L^−1 F10 or 1 μmol L^-1 Mavacamten

## CCc1cc2c(=O)n(NC(=S)NC(C)C)cnc2s1 [F10]
20 μmol L^−1 F10
  decrease of LVSP: about 65%
  time to LVSP decrease: 2 to 3 min
20 μmol L^−1 F10, baseline 1.9 ± 0.2
  LVEDP: 22.0 ± 1.1 mmHg
20 μmol L^−1 F10, baseline 15.6 ± 1.7
  Coronary flow: 16.7 ± 2.3 mL/min
20 μmol L^−1 F10, baseline 168.0 ± 8.5
  LVSP (left ventricular systolic pressure): 58.3 ± 2.2 mmHg and ~60 mmHg
20 μmol L^−1 F10, baseline 303 ± 8
  Heart rate: 300 ± 4 bpm
20 μmol L^−1 F10, baseline 3978.8 ± 108.0
  dP dt-1max: 1329.0 ± 153.8 mmHg s-1
20 μmol L^−1 F10, baseline -3352.4 ± 134.4
  dP dt-1min: -1300.0 ± 104.2 mmHg s-1
[1]
  effect on coronary perfusion / coronary flow: without, however, affecting
  effect on heart rate: without, however, affecting
  effect on left ventricular end-diastolic pressure (LVEDP): slightly increased
Time 0 min
  Max (Figure 5c): 4538.86 and 3737.57 and 4104.74 and 3514.73
Time 1 min
  Max (Figure 5c): 4533.2 and 3831.26 and 4064.23 and 3491.94
Time 2 min
  Max (Figure 5c): 4496.16 and 3879.38 and 4046.5 and 3811.01
Time 3 min
  Max (Figure 5c): 4752.62 and 3481.82 and 4079.42 and 3811
Time 4 min
  Max (Figure 5c): 4748.26 and 3745.17 and 3942.68 and 3866.71
Time 5 min
  Max (Figure 5c): 4784.79 and 3724.91 and 3914.83 and 3735.04
Time 6 min
  Max (Figure 5c): 4906.21 and 3922.42 and 4049.03 and 3689.46
Time 7 min
  Max (Figure 5c): 4229.13 and 4155.39 and 4130.07 and 3504.61
Time 8 min
  Max (Figure 5c): 3838.64 and 3904.7 and 4175.65 and 3570.44
Time 9 min
  Max (Figure 5c): 4069.64 and 3864.18 and 4233.89 and 3747.7
Time 10 min
  Max (Figure 5c): 4016.14 and 3757.83 and 4254.14 and 3608.43
[2]
  LVEDP, individual hearts: 15.6 and 9.2 (2×) and 12.7
  LVSP, individual hearts: 111 and 115 and 127 and 112
Time 11 min
  Max (Figure 5c): 2272.52 and 2689.23 and 2643.65 and 2375.23
[3]
  LVEDP, individual hearts: 29.6 and 15 and 19.6 and 15.9
  LVSP, individual hearts: 61 and 72 and 67 and 69
Time 12 min
  Max (Figure 5c): 1178.7 and 1696.59 and 1306.63 and 1372.47
[4]
  LVEDP, individual hearts: 33.1 and 16.4 and 22.8 and 17.5
  LVSP, individual hearts: 53 and 61 and 54 and 64
Time 13 min
  Max (Figure 5c): 944.61 and 1258.52 and 1063.54 and 1212.94
[5]
  LVEDP, individual hearts: 33.5 and 16.7 and 22.2 and 17.6
  LVSP, individual hearts: 53 and 62 and 55 and 63
[6]
  LVEDP, individual hearts: 24.3 and 20.65 and 23.5 and 19.6
  LVSP, individual hearts: 54 and 60 and 59 and 62
Time 15 min
  Max (Figure 5c): 1778.6 and 1228.13 and 1081.26
Time 16 min, after washout
  LVEDP, individual hearts: 10.1 and 9 and 13.9 and 11.2
  LVSP, individual hearts: 56 and 118 and 105 and 99
Time 16 min
  Max (Figure 5c): 3660.62 and 2787.98 and 2279.01 and 1886.51
Time 17 min, after washout
  LVEDP, individual hearts: 4.9 and 3.7 and 8.8 and 5.7
  LVSP, individual hearts: 80 and 162 and 174 and 148
Time 17 min
  Max (Figure 5c): 4729.41 and 3935.08 and 3990.79 and 3096.92
Time 18 min, after washout
  LVEDP, individual hearts: 3.9 and 2 and 7.3 (2×)
  LVSP, individual hearts: 157 and 184 and 161 and 128
Time 18 min
  Max (Figure 5c): 4833.67 and 4428.87 and 3509.67 and 2539.83
Time 19 min, after washout
  LVEDP, individual hearts: 4.5 and 0 and 5.9 and 6.4
  LVSP, individual hearts: 189 and 183 and 170 and 127
Time 19 min
  Max (Figure 5c): 4740.03 and 4469.38 and 3319.75 and 2476.52
Time 20 min, after washout
  LVEDP, individual hearts: 4.8 and 1.5 and 7.4 and 6.4
  LVSP, individual hearts: 198 and 188 and 151 and 124
Time 20 min
  Max (Figure 5c): 4601.11 and 4596 and 3177.95 and 2499.31
Time 21 min, after washout
  LVEDP, individual hearts: 3.4 and 1.5 and 7.5 and 6
  LVSP, individual hearts: 199 and 191 and 151 and 124
Time 21 min
  Max (Figure 5c): 4625.81 and 4497.24 and 3228.59 and 2473.99
Time 22 min, after washout
  LVEDP, individual hearts: 0.7 and 0.5 and 7.5 and 6.6
  LVSP, individual hearts: 200 and 181 and 145 and 127
Time 22 min
  Max (Figure 5c): 4517.25 and 4112.34 and 3099.45 and 2489.18
Time 23 min, after washout
  LVEDP, individual hearts: 3.5 and 0.4 and 5.8 and 6.4
  LVSP, individual hearts: 202 and 174 and 144 and 129
Time 23 min
  Max (Figure 5c): 4435.96 and 3988.26 and 3074.13 and 2524.63
Time 24 min, after washout
  LVEDP, individual hearts: 3.4 and 1.5 and 6.4 and 5.5
  LVSP, individual hearts: 196 and 173 and 146 and 133
Time 24 min
  Max (Figure 5c): 4141.16 and 3968 and 3132.37 and 2582.87
Time 25 min, after washout
  LVEDP, individual hearts: 2.4 and 0.2 and 5.3 and 4.7
  LVSP, individual hearts: 195 and 173 and 151 and 139
Time 25 min
  Max (Figure 5c): 4228.11 and 3945.21 and 3241.25 and 2668.97
After washout, t 0 s
  LVSP representative trace, OFF: 26.9301 mmHg
After washout, t 10 s
  LVSP representative trace, OFF: 27.9144 mmHg
After washout, t 20 s
  LVSP representative trace, OFF: 30.1929 mmHg
After washout, t 30 s
  LVSP representative trace, OFF: 33.9204 mmHg
After washout, t 40 s
  LVSP representative trace, OFF: 39.0616 mmHg
After washout, t 50 s
  LVSP representative trace, OFF: 45.8972 mmHg
After washout, t 60 s
  LVSP representative trace, OFF: 54.0831 mmHg
After washout, t 70 s
  LVSP representative trace, OFF: 63.6019 mmHg
After washout, t 80 s
  LVSP representative trace, OFF: 75.1964 mmHg
After washout, t 90 s
  LVSP representative trace, OFF: 88.9731 mmHg
After washout, t 100 s
  LVSP representative trace, OFF: 99.8102 mmHg
After washout, t 110 s
  LVSP representative trace, OFF: 110.826 mmHg
After washout, t 120 s
  LVSP representative trace, OFF: 122.733 mmHg
After washout, t 130 s
  LVSP representative trace, OFF: 132.379 mmHg
After washout, t 140 s
  LVSP representative trace, OFF: 138.465 mmHg
After washout, t 150 s
  LVSP representative trace, OFF: 148.942 mmHg
After washout, t 160 s
  LVSP representative trace, OFF: 154.992 mmHg
After washout, t 170 s
  LVSP representative trace, OFF: 158.488 mmHg
After washout, t 180 s
  LVSP representative trace, OFF: 163.133 mmHg
After washout, t 190 s
  LVSP representative trace, OFF: 167.458 mmHg
After washout, t 200 s
  LVSP representative trace, OFF: 171.598 mmHg
After washout, t 210 s
  LVSP representative trace, OFF: 175.866 mmHg
After washout, t 220 s
  LVSP representative trace, OFF: 181.264 mmHg
After washout, t 230 s
  LVSP representative trace, OFF: 184.759 mmHg
After washout, t 240 s
  LVSP representative trace, OFF: 185.799 mmHg
T 0 s
  LVSP representative trace, ON: 184.006 mmHg
T 10 s
  LVSP representative trace, ON: 181.455 mmHg
T 20 s
  LVSP representative trace, ON: 172.654 mmHg
T 30 s
  LVSP representative trace, ON: 155.565 mmHg
T 40 s
  LVSP representative trace, ON: 123.466 mmHg
T 50 s
  LVSP representative trace, ON: 94.0285 mmHg
T 60 s
  LVSP representative trace, ON: 73.0453 mmHg
T 70 s
  LVSP representative trace, ON: 48.8284 mmHg
T 80 s
  LVSP representative trace, ON: 40.271 mmHg
T 90 s
  LVSP representative trace, ON: 34.4969 mmHg
T 100 s
  LVSP representative trace, ON: 31.9133 mmHg
T 110 s
  LVSP representative trace, ON: 30.398 mmHg
T 120 s
  LVSP representative trace, ON: 28.7612 mmHg
T 130 s
  LVSP representative trace, ON: 28.2624 mmHg
T 140 s
  LVSP representative trace, ON: 27.1705 mmHg
Individual hearts
  Coronary flow: 18.7 mL/min and 18.0 mL/min and 20.0 mL/min and 10.0 mL/min
  Heart rate: 295.0 bpm and 311.0 bpm and 292.0 bpm and 302.0 bpm
  LVEDP: 30.3 mmHg and 17.9 mmHg and 22.8 mmHg and 18.2 mmHg
  LVSP: 53.3 mmHg and 61.0 mmHg and 56.0 mmHg and 63.0 mmHg
  dP dt-1max: 1778.6 mmHg s-1 and 1228.1 mmHg s-1 (2×) and 1081.3 mmHg s-1
  dP dt-1min: -1606.8 mmHg s-1 and -1233.2 mmHg s-1 and -1142.0 mmHg s-1 and -1218.0 mmHg s-1
Perfusion with KH solution in the absence of F10
  reversibility of the effect on washout: completely reversible
